Here are results for eight compounds from patent US9187450B2, “Substituted pyridine compound” (Daiichi Sankyo Company, Limited, priority 2010, dated 2015).

For orientation: pIC50 means −log10 of the IC50, conventionally taken in molar units.

pIC50: −log10 of the molar value.

Sequence of recombinant human CETP protein (P11597 18-493): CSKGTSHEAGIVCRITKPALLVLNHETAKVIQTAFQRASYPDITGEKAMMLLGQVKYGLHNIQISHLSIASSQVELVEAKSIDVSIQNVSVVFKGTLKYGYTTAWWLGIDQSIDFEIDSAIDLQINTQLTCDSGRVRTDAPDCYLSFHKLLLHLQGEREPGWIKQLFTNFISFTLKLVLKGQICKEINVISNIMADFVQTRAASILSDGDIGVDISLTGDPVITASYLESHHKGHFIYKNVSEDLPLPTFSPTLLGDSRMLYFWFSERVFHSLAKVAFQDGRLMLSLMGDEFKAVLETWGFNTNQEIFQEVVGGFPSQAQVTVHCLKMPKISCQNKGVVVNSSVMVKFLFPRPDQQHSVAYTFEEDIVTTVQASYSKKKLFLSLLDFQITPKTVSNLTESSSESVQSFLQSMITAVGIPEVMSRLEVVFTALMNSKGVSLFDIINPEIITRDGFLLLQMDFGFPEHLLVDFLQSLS

The target in this assay is recombinant human CETP protein (Homo sapiens (Human), UniProt P11597). Briefly: Test of CETP inhibition activity (in vitro, buffer-based). Type of assay: biochemical. The following applies: reconstituted HDL with [14C]-labeled cholesteryl ester, acceptor lipoprotein, 37° C. An outline of the steps:
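Reconstituted HDL carrying [14C]-cholesteryl ester served as donor and plasma IDL/LDL (density 1.019–1.063) as acceptor, with 4.5 ng recombinant CETP in PBS pH 7.4. Compound (DMSO stocks 0.15–500 μM) was preincubated with CETP and acceptor for 60 min at 37 °C, then reacted with donor for 60 min. HDL-fraction radioactivity after MgCl2/dextran sulfate precipitation gave % inhibition and IC50.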
Take `CN(CCO)c1cnc(N2CCC(c3nc4c(c(C5CCC(F)(F)CC5)c3[C@@H](F)c3ccc(C(F)(F)F)cc3)[C@@H](O)CC(C)(C)C4)CC2)nc1` (single isomer, unassigned) [Example 56, 4-(4,4-Difluorocyclohexyl)-3-{fluoro[4-(trifluoromethyl)phenyl]methyl}-2-(1-{5-[(2-hydroxyethyl)(methyl)amino]pyrimidin-2-yl}piperidin-4-yl)-7,7-dimethyl-5,6,7,8-tetrahydroquinolin-5-ol]: the pIC50 was 7.55.

In the case of `CC1(C)Cc2nc(C3CCN(c4ncc(N5CC[C@H](O)C5)cn4)CC3)c([C@@H](F)c3ccc(C(F)(F)F)cc3)c(C3CCC(F)(F)CC3)c2[C@@H](O)C1` (single isomer, unassigned) [Example 57], the pIC50 was 7.48.

As for `CC(C)(O)COc1cnc(N2CCC(c3nc4c(c(C5CCC(F)(F)CC5)c3[C@@H](F)c3ccc(C(F)(F)F)cc3)[C@@H](O)CC(C)(C)C4)CC2)nc1` (stereo in doubt) [Example 44, 4-(4,4-Difluorocyclohexyl)-3-{fluoro[4-(trifluoromethyl)phenyl]methyl}-2-{1-[5-(2-hydroxy-2-methylpropoxy)pyrimidin-2-yl]piperidin-4-yl}-7,7-dimethyl-5,6,7,8-tetrahydroquinolin-5-ol], the pIC50 was 7.68.

Turning to `CC1(C)Cc2nc(C3CCN(c4ncc(CO)cn4)CC3)c([C@@H](F)c3ccc(C(F)(F)F)cc3)c(C3CCC(F)(F)CC3)c2[C@@H](O)C1` [Example 20, (−)-4-(4,4-Difluorocyclohexyl)-3-{fluoro[4-(trifluoromethyl)phenyl]methyl}-2-[1-[5-(hydroxymethyl)pyrimidin-2-yl]piperidin-4-yl]-7,7-dimethyl-5,6,7,8-tetrahydroquinolin-5-ol], the pIC50 is 6.59.

On to `C[C@H](O)COc1cnc(N2CCC(c3nc4c(c(C5CCC(F)(F)CC5)c3[C@@H](F)c3ccc(C(F)(F)F)cc3)[C@@H](O)CC(C)(C)C4)CC2)nc1` [Example 37, (−)-4-(4,4-Difluorocyclohexyl)-3-{fluoro[4-(trifluoromethyl)phenyl]methyl}-2-[1-(5-{[(2S)-2-hydroxypropyl]oxy}pyrimidin-2-yl)piperidin-4-yl]-7,7-dimethyl-5,6,7,8-tetrahydroquinolin-5-ol], for which the pIC50 was 7.60.

Regarding `CC1(C)Cc2nc(C3CCN(c4ncc(OC[C@@H](O)CO)cn4)CC3)c([C@@H](F)c3ccc(C(F)(F)F)cc3)c(C3CCC(F)(F)CC3)c2[C@@H](O)C1` [Example 39, (−)-4-(4,4-Difluorocyclohexyl)-2-[1-(5-{[(2S)-2,3-dihydroxypropyl]oxy}pyrimidin-2-yl)piperidin-4-yl]-3-{fluoro[4-(trifluoromethyl)phenyl]methyl}-7,7-dimethyl-5,6,7,8-tetrahydroquinolin-5-ol], the pIC50 was 7.49.

With `CC1(C)Cc2nc(C3CCN(c4ncc(OCCCO)cn4)CC3)c([C@@H](F)c3ccc(C(F)(F)F)cc3)c(C3CCC(F)(F)CC3)c2[C@@H](O)C1` [Example 46, (−)-4-(4,4-Difluorocyclohexyl)-3-{fluoro[4-(trifluoromethyl)phenyl]methyl}-2-{1-[5-(3-hydroxypropoxy)pyrimidin-2-yl]piperidin-4-yl}-7,7-dimethyl-5,6,7,8-tetrahydroquinolin-5-ol], the pIC50 was 7.80.

For the compound `CC1(C)Cc2nc(C3CCN(c4ncc(-c5cccc(C(=O)O)c5)cn4)CC3)c([C@@H](F)c3ccc(C(F)(F)F)cc3)c(C3CCC(F)(F)CC3)c2[C@@H](O)C1` [Example 55, (−)-2-{1-[5-(3-Carboxyphenyl)pyrimidin-2-yl]piperidin-4-yl}-4-(4,4-difluorocyclohexyl)-3-{fluoro[4-(trifluoromethyl)phenyl]methyl}-7,7-dimethyl-5,6,7,8-tetrahydroquinolin-5-ol], the negative logarithm of the IC50 (pIC50) is 7.23.
